Data on twelve molecules can be found in patent US5089623A, “Certain imidate insecticides” (Imperial Chemical Industries Plc, priority 1990, dated 1992).

What all share (type): in vivo
The test system of assay [1] is Maize weevil [Sitophilus Zeamais (Motschulsky)]. Kind of assay: Maize weevil test (MW). The conditions noted are these: adult weevils, treated corn seeds, 48 hours, percent in solution. Summed up:
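Adult weevils (10) were placed with four corn seeds that had been dipped 2-3 s in compound dissolved in 50:50 acetone:water, then dried, and held at about 25° C. Mortality was scored at 48 h. LC50 was taken from dosage-mortality curves and expressed as percent compound in solution, from a 0.01% top concentration.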

In assay [2] the test system is Rice water weevil [Lissorhoptrus oryzophilus (Kuschel)]. The experiment in a line: Rice water weevil test (RWW). The conditions noted are these: per weevil, topical, female adults, 48 hours. As for the experimental part:
The compounds in Tables 1 and 2 above were tested for insecticidal activity using the following testing procedures. LC50 values, based on the results of these tests and calculated according to dosage-mortality curves, are expressed in Table 3.
Rice water weevil [Lissorhoptrus oryzophilus (Kuschel)]
Test compounds were diluted in acetone. Droplets (1 ul) of test solutions were applied to the ventral abdomens of ten female adult weevils. The treated weevils were placed in containers with wet cotton balls and rice foliage. The containers were covered and kept at a temperature of about 25° C. Mortality was recorded after 48 hours. […] The LC50 values are expressed below in Table 3 under the heading "RWW" in terms of μg of test compound per weevil.

In assay [3] the test system is Tobacco Budworm [Heliothis virescens (Fabricius)] eggs. The experiment in a line: Tobacco budworm egg test (TBW-E). To be noted: percent in solution.
Assay [4] relates to Housefly [Musca domestica]. Kind of assay: Housefly insecticidal test (HF). To be noted: per 25 female houseflies, 48 hours.
For assay [5], the system named is Cabbage Looper [Trichoplusia ni (Hubner)]. Kind of assay: Cabbage looper test (CL). To be noted: second-instar larvae, 3-5 days, percent in solution.
In assay [6] the test system is Aster Leafhopper [Macrosteles fascifrens (Stal)]. Kind of assay: Aster leafhopper test (LH). To be noted: adults/nymphs, 48 hours, percent in solution.

Turning to `CC(C)C(=Nc1ccc(Cl)c(Cl)c1)OCc1ccc(F)c(Oc2ccccc2)c1` [Compound 376], the “LC50 MW” value in assay [1] was determined as 0.0061%. Also, the “LC50 RWW” value in assay [2] came to 0.1 µg. Further, in assay [3], the “LC50 TBW E” value was found to be 0.02%. In addition, the “LC50 HF” value in assay [4] came out at 17 µg. The “LC50 CL” value in assay [5] is listed as 0.00037%.
On the same counts, the results for `CC(C)C(=Nc1ccc(Br)c(Cl)c1)OCc1ccc(F)c(Oc2ccc(Cl)cc2)c1` [Compound 381] are > 0.01%, > 2.5 µg, 0.018%, < 100 µg and 0.00092%.
On the same counts, the results for `CC(C)C(=Nc1ccc(F)c(Cl)c1)OCc1cccc(Oc2ccc(F)cc2)c1F` [Compound 262] are 0.005%, > 2.5 µg, > 0.1%, 26 µg and 0.0004%.
Take `CC(C)C(=Nc1ccc(C(F)(F)F)cc1)OCc1cccc(Oc2ccccc2)c1` [Compound 68]: the “LC50 MW” value in assay [1] is > 0.01%. For the same molecule, in assay [2], the “LC50 RWW” value is 0.15 µg. In addition, the “LC50 TBW E” value in assay [3] turned out to be 0.009%. In assay [4], the “LC50 HF” value was 37 µg. Moreover, in assay [6], the “LC50 LH” value came to 0.0001%. For the same molecule, the “LC50 CL” value in assay [5] worked out at 0.006%.
Regarding `CC(C)C(=Nc1ccc(Cl)c(Cl)c1)OCc1ccc(F)c(Oc2ccc(F)cc2)c1` [Compound 289], the “LC50 MW” value in assay [1] is > 0.01%. In addition, in assay [2], the “LC50 RWW” value worked out at 0.082 µg. Also, the “LC50 TBW E” value in assay [3] came to 0.006%. Besides, the “LC50 HF” value in assay [4] amounted to 10 µg. The “LC50 LH” value in assay [6] was determined as 0.0003%. Further, the “LC50 CL” value in assay [5] is 0.00007%.
Take `CC(C)C(=Nc1ccc(C(F)(F)F)c(Br)c1)OCc1ccc(F)c(Oc2ccc(Cl)cc2)c1` [Compound 377]: in assay [1], the “LC50 MW” value is > 0.01%. Further, the “LC50 RWW” value in assay [2] is > 2.5 µg. Also, the “LC50 TBW E” value in assay [3] is > 0.1%. The “LC50 HF” value in assay [4] is < 100 µg. Besides, the “LC50 CL” value in assay [5] was determined as 0.00062%.
Taken in the same sequence, the figures for `CC(C)C(=Nc1cccc(Br)c1)OCc1ccc(F)c(Oc2ccccc2)c1` [Compound 387] were > 0.01%, > 2.5 µg, 0.05%, < 100 µg and 0.0012%.
On to `CC(C)C(=Nc1ccc(Br)c(Cl)c1)OCc1cccc(Oc2ccc(Cl)cc2)c1` [Compound 380], for which the “LC50 MW” value in assay [1] is reported as > 0.01%. Further, the “LC50 RWW” value in assay [2] is > 2.5 µg. In addition, in assay [3], the “LC50 TBW E” value is > 0.1%. Also, the “LC50 HF” value in assay [4] is > 100 µg. Moreover, the “LC50 CL” value in assay [5] is listed as > 0.1%.
As to `CC(C)C(=Nc1ccc(Cl)c(OCC(F)(F)F)c1)OCc1ccc(F)c(Oc2ccc(Cl)cc2)c1` [Compound 452], the “LC50 MW” value in assay [1] is reported as > 0.01%. The “LC50 RWW” value in assay [2] amounted to 0.1 µg. For the same molecule, the “LC50 TBW E” value in assay [3] is reported as < 0.1%. In addition, in assay [4], the “LC50 HF” value was > 100 µg. The “LC50 CL” value in assay [5] is 0.0017%.
On the same counts, the results for `CC(C)C(=Nc1ccc(F)c(Cl)c1)OCc1cc(Oc2ccc(F)cc2)ccc1F` [Compound 230] are 0.038%, > 2.5 µg, 0.1%, 36 µg and 0.0004%.
Taken in the same sequence, the figures for `CC(C)C(=Nc1ccc(Br)c(Cl)c1)OCc1ccc(F)c(Oc2ccc(F)cc2)c1` [Compound 382] were > 0.01%, > 2.5 µg, 0.027%, < 100 µg and 0.00029%.
Regarding `CC(C)C(=Nc1cccc(F)c1)OCc1ccc(F)c(Oc2ccc(Cl)cc2)c1` [Compound 375], the “LC50 MW” value in assay [1] is reported as > 0.01%. The “LC50 RWW” value in assay [2] was > 2.5 µg. Further, the “LC50 TBW E” value in assay [3] is recorded as 0.04%. In addition, the “LC50 HF” value in assay [4] was 7.9 µg. Moreover, the “LC50 CL” value in assay [5] was > 0.1%.
